Values after ≈ are worked out from the molar mass of the structure shown. Residues, ends and D or L forms follow the SMILES beside them. No end group written: not given here. *: point of attachment. Myristoyl = CCCCCCCCCCCCCC(=O)*

Series [1] is described as follows: Analytical RP-HPLC retention time as measure of hydrophobicity. The format is physicochemical. The conditions noted are these: gradient of eluents. How it is done: Lipopeptide C14KKGGII was synthesized in the form of acyl chain hydrogenated h-C14KKGGII and acyl chain deuterated d-C14KKGGII. The lipopeptide samples were prepared using a Liberty Blue automated microwave peptide synthesizer, where the standard Fmoc solid-phase strategy was followed. Dimethylformamide (DMF) was used as the solvent during the whole process. Rink-amide resin was employed as a loading anchor to synthesize C-terminal amidated lipopeptides and was swelled for 5 min in DMF before synthesis. After the removal of Fmoc groups on resins, amino acids (Fmoc-Gly-OH, Fmoc-Ile-OH, and Fmoc-Lys-OH in this study) were coupled to the solid phase in succession from the C-terminal to the N-terminal, assisted by the addition of ethyl 2-cyano-2-(hydroxyimino)acetate (OXYMA) and N,N′-diisopropylcarbodiimide (DIC) at 90 °C for 4 min. Fmoc protecting groups on amino acids were removed before further linking using 20% piperidine in DMF. Hydrogenated or deuterated myristic acid was added onto the chain in the last step using the same method. A cleavage mixture of trifluoroacetic acid (TFA), water, and tri-isopropylsilane (TIS) (94/4/2, v/v/v) was employed for the reaction with lipopeptide-loaded resins for 3 h at ambient temperature, removing the side chain protecting groups on the amino acids and releasing lipopeptides from the resin beads. […]

For series [2] the following is noted: previous findings by Lu et al.; cited from earlier work. The source says: From the best fitted surface tension parameters (listed in Table S2), the area per molecule (APM) could be calculated from eq 4 for each amphiphile at its respective CAC. […] This is in line with the previous findings by Lu et al., which stated that APMs of C10TAB, C12TAB, C14TAB, C16TAB, and C18TAB adsorbed on the surface of water were 55 ± 3, 50 ± 2, 48 ± 3, 43 ± 3, and 43 ± 3 Å^2, respectively.[29]−[33] Each lipopeptide molecule occupied around 79 ± 10 Å^2 at ...

For a further series, the system named is hRBCs. The format is cell-based, human. Here is the method:
hRBCs were purchased from Rockland Immunochemical Inc. Hemolytic assays were performed in 96-well plates in an environment of PBS, as previously described.[13],[23] Amphiphiles were half diluted serially at first, resulting in 100 μL of solution in each well, and mixed subsequently with 100 μL of 4% hRBC suspension. Wells filled by PBS mixed with hRBC were employed as positive controls, while hRBCs with added 0.1% Triton X-100 were negative controls. After incubating at 37 °C for 1 h, the plates were centrifuged at 1000 times gravity for 5 min. The supernatants in each well, which contained the released hemoglobin, were transferred to another plate, and their optical density at 450 nm (OD450) was measured using an absorbance microplate reader. The percentage of hemolysis H for each sample at a certain concentration c was obtained by Hc = (OD450,c – OD450,positive control)/(OD450,negative control – OD450,positive control) × 100%. Figures for percentage leakage against concentration for each sample were plotted to determine the approximate range of 50% hemolysis, and the relevant concentration was the half maximal effective concentration (EC50) of the sample. Each experiment was repeated at least three times with each containing three replicates. The dose–response curves were again obtained by applying sigmoidal functional fits to obtain the EC50 values.

The subject of series [3] is C. albicans SC5314 (ATCC MYA-2876). The format is cell-based, Candida albicans. The settings on record: SC5314, 48 h. How it is done:
(§1) E. coli (ATCC 25922), S. aureus (ATCC 6538), and C. albicans SC5314 (ATCC MYA-2876) were purchased from the American Type Culture Collection (ATCC). The two bacterial strains, E. coli and S. aureus, were cultured in Mueller Hinton broth at 37 °C; while the yeast strain, C. albicans, was grown in RPMI 1640 medium at 30 °C. The microdilution method was employed to determine MICs of the amphiphiles against the microorganism strains listed above.[21] Solutions of lipopeptides and biocides were half-diluted serially in 96-well plates using PBS buffer containing 137 mM NaCl, 2.7 mM KCl, 8.1 mM Na2HPO4, and 1.9 mM KH2PO4 for E. coli and S. aureus and using RPMI 1640 for C. albicans. Overnight incubations of the strains, in each respective growth medium, were then inoculated into each well, giving final concentrations of 10^6 CFU/mL for E. coli and S. aureus and 10^5 CFU/mL for C. albicans. Culture media without microorganisms and amphiphiles were employed as positive controls, while fresh microorganism cultures without amphiphiles were used as negative controls. Each plate has both positive controls and negative controls. The plates were then incubated at an appropriate temperature (stated above) for 24 h for the bacterial strains and 48 h for the yeast strain. MICs of each sample were first determined by eye. A more quantitative analysis was carried out by measuring optical densities at 600 nm (OD600) of each well using a Sunrise absorbance microplate reader (Tecan Group Ltd.). Inhibitory ratios (IRs) of each sample at a given concentration against a specific strain, denoted as IRi, were calculated by IRi = (OD600,negative control – OD600,i)/(OD600,negative control – OD600,positive control) × 100%. All experiments were repeated at least three times with each group containing three replicates. To better analyze concentration–IR relationships, sigmoidal function fittings were employed to generate the best fitted dose response curve for each situation.

The test system of series [4] is Human dermal fibroblasts cells (adult, HDFa cells). The format is cell-based. The settings on record: 24 h. How it is done:
(§2) Human dermal fibroblasts cells (adult, HDFa cells) and NIH 3T3 fibroblasts cells (3T3 cells, ATCC-1658) were cultured at 37 °C in Dulbecco’s modified Eagle medium (ATCC30-2002, added with 10% heat-inactivated fetal bovine serum) with a continuous supply of CO2 at a 5% level. MTT assays were carried out to examine in vitro cytotoxicity of the amphiphiles.[22] Cells were first inoculated in flat-bottom 96-well plates, rendering 8 × 10^3 cells in 100 μL of medium for each well, and were incubated for 24 h. The cells were mixed with 100 μL of a solution of an amphiphile with 2 times the selected concentrations. Cells were then exposed to the solutions of each amphiphile for 24 h, after which 10 μL of 5 mg/mL MTT solution was added into each well, and the reaction was allowed for 2 h. 200 μL of dimethyl sulfoxide was then added to each well to dissolve the transformed MTT formazan. Light absorbance of the samples was measured using a Thermo Scientific Varioskan LUX at 570 nm. Cell samples 100% viable and 100% dead were employed as the positive control and negative control, respectively. Dose response curves were obtained by applying sigmoidal function fittings to obtain 50% effective concentrations (EC50).

In series [5] the test system is NIH 3T3 fibroblasts cells (3T3 cells, ATCC-1658). The format is cell-based. The settings on record: 24 h. How it is done: as §2
Another series relates to S. aureus (ATCC 6538). The format is cell-based, Staphylococcus aureus. The conditions noted are these: ATCC 6538, 24 h. How it is done:
as §1

The next series has as its system E. coli (ATCC 25922). The format is cell-based, Escherichia coli. The conditions noted are these: ATCC 25922, 24 h. Here is the method:
as §1

KKGGII-NH2 [KKGGII, KKGGII-NH2]: in series [1], the “RP-HPLC retention time (comparison of hydrophobicity)” value stood at 15.4 min.

As for `CCCCCCCCCC[N+](C)(C)C.[Br-]` [C10TAB], the “APM adsorbed on the surface of water” value in series [2] is reported as 55 ± 3 Å^2.

Consider “CD3(CD2)12CO-KKGGII-NH2 [dC14KKGGII, acyl chain deuterated C14KKGGII]”, for which the “RP-HPLC retention time (comparison of hydrophobicity)” value in series [1] was 25.6 min.

On to `CCCCCCCCCCCCCCCCCC[N+](C)(C)C.[Br-]` [C18TAB], for which the “APM adsorbed on the surface of water” value in series [2] is on record as 43 ± 3 Å^2.

For the molecule `CCCCCCCCCCCCCCCC[N+](C)(C)C.[Br-]` [C16TAB], the “APM adsorbed on the surface of water” value in series [2] is listed as 43 ± 3 Å^2.

In general, EC50 refers to the concentration at which the effect is half-maximal. Read a low EC50 as greater potency. Regarding `CCCCCCCCCCCCCC(=O)N[C@@H](CCCCN)C(=O)N[C@@H](CCCCN)C(=O)NCC(=O)NCC(=O)N[C@H](C(=O)N[C@H](C(N)=O)[C@@H](C)CC)[C@@H](C)CC` [C14KKGGII, CH3(CH2)12CO-Lys-Lys-Gly-Gly-Ile-Ile-NH2] (Myristoyl-KKGGII-NH2), in the series on hRBCs, the “concentration at which hemolysis starts” value was found to be 16 µM. Moreover, the figures for the concentration for a half-maximal effect (EC50) (with hRBCs (1 h); in series [4]; in series [5]) were 180 ± 30 µM, 110 ± 30 µM and 66 ± 6 µM, respectively. Besides, in series [3], the “MIC, C. albicans” value is 12 ± 2 µM (≈ 9.89 µg/mL). In addition, the “MIC, S. aureus” value against S. aureus (ATCC 6538) is 9 ± 3 µM (≈ 7.42 µg/mL). Further, the “MIC, E. coli” value in the series with E. coli (ATCC 25922) came out at 16 ± 6 µM (≈ 13.2 µg/mL).

The values above are taken from PMC9161444, “In-Membrane Nanostructuring of Cationic Amphiphiles Affects Their Antimicrobial Efficacy and Cytotoxicity: A Comparison Study between a De Novo Antimicrobial Lipopeptide and Traditional Biocides” (Langmuir, 2022).
